Measurements reported in patent publication US9492471B2, “Methods of treating a disease or disorder associated with Bruton'S Tyrosine Kinase” (Celgene Avilomics Research, Inc., priority 2013, dated 2016).

Key:
patients with CLL = assay: Compound 1 besylate monotherapy in CLL patients; format: in vivo, human
Environmental stability = format: physicochemical
[1] = monotherapy, as of Sep. 11, 2012

SMILES | maximum tolerated dose (MTD) (patients with CLL; single agent, up to 750 mg PO QD) | patients with CLL with stable disease continuing on treatment (patients with CLL; [1]) | patients with early increases in absolute lymphocyte counts (ALC) (patients with CLL; [1]) | patients with reductions in lymph node size (patients with CLL; [1]) | environmental instabilities (heat, acid, base) (Environmental stability)
C=CC(=O)Nc1cccc(Nc2nc(Nc3ccc(OCCOC)cc3)ncc2F)c1 [Compound 1, N-(3-(5-fluoro-2-(4-(2-methoxyethoxy)phenylamino)pyrimidin-4-ylamino)phenyl)acrylamide] | has not yet been reached |  |  |  | 
C=CC(=O)Nc1cccc(Nc2nc(Nc3ccc(OCCOC)cc3)ncc2F)c1.O=S(=O)(O)c1ccccc1 [N-(3-(5-fluoro-2-(4-(2-methoxyethoxy)phenylamino)pyrimidin-4-ylamino)phenyl)acrylamide benzenesulfonic acid salt] |  | 35 out of 43 | 28 of 33 | 15 of 23 | no environmental instabilities
